Test system: miR-18a
Assay: Ribonuclease activity assay, cleavage of miR-18a
Type: biochemical
Details: miRNA 1 µM, DC 20 µM, 37 °C
Method: The ribonuclease activity of DCs was studied under two different buffer conditions: buffer (1) contained 50 mM Tris-HCl, pH 7.0, 200 mM KCl, 1 mM EDTA, which imitates intracellular conditions (e.g., pH and potassium ions concentration) and was used in a number of studies previously; and buffer (2) contained 20 mM Tris-HCl, pH 7.8, 40 mM KCl, 8 mM MgCl2, 1 mM DTT, 0.02 mg/mL BSA, which is recommended for in vitro reactions with RNase H (Figure 3 and Figure 4).
Figure 3 Kinetics of cleavage of 5′-[^32P]-labeled miR-17, miR-18a, miR-155, miR-21 and miR-21_1 by corresponding DCs in the buffer (1), containing 50 mM Tris-HCl, pH 7.0, 200 mM KCl and 1 mM EDTA. (a–e) Radioautographs of 18% denaturing PAAG showing the cleavage products of miR-17, miR-18a, miR-155, miR-21 and miR-21_1, respectively. miRNA (1 µM) and corresponding DC (20 µM) were incubated at 37 °C for 72 h. Lanes Im and T1—imidazole ladder and partial RNA digestion with RNase T1, respectively; control–miRNA was incubated in the absence of the conjugate. The incubation time (in hours) is show at the top. SS gap–single-stranded region of miRNA formed upon hybridization with DC; (f) Kinetics of miRNAs cleavage by DCs depending on the incubation time. Data are presented as mean ± s.e.
Figure 4 Kinetics of cleavage of 5′-[^32P]-labeled miR-17, miR-18a, miR-155, miR-21, and miR-21_1 by corresponding DCs in the buffer (2), containing 20 mM Tris-HCl, pH 7.8, 40 mM KCl, 8 mM MgCl2, 1 mM DTT, 0.02 mg/mL BSA. (a–e) Radioautographs of 18% denaturing PAAG showing the cleavage products of miR-17, miR-18a, miR-155, miR-21 and miR-21_1, respectively. miRNA (1 µM) and corresponding DC (20 µM) were incubated at 37 °C for 72 h. Lanes Im and T1–imidazole ladder and partial RNA digestion with RNase T1, respectively; control–miRNA was incubated in the absence of the conjugate. The incubation time (in hours) is shown at the top. SS gap–single-stranded region of miRNA formed upon hybridization with DC; (f) Kinetics of miRNAs cleavage by DCs. Data are presented as mean ± s.e.
The reaction mixture (10 µL) contained 800 cpm (Cherenkov’s counting) of [^32P]-miRNA, 1 μM unlabeled miRNA, one of the conjugates at a concentration 10 or 20 μM and one of the buffers: 50 mM Tris-HCl, pH 7.0, 200 mM KCl, 1 mM EDTA–buffer (1) or 20 mM Tris-HCl, pH 7.8, 40 mM KCl, 8 mM MgCl2, 1 mM DTT, 0.02 mg/mL BSA–buffer (2). The mixture was incubated at 37 °C for 0–72 h and quenched by precipitation of RNA with 2% LiClO4 in acetone (90 µL). RNA was collected by centrifugation and dissolved in loading buffer (8 M urea, 0.025% bromophenol blue, 0.025% xylene cyanol). RNA cleavage products were analyzed in 18% PAAG/8M urea using TBE (100 mM Tris-borate, pH 8.3, 2 mM EDTA) as running buffer. To identify cleavage sites, an imidazole and T1-ladders produced by partial RNA cleavage with 2 M imidazole buffer (pH 7.0) and with RNase T1 [68], respectively, were run in parallel. To obtain quantitative data, gels were dried and analyzed using Molecular Imager FX. The total extent of RNA cleavage and the extent of RNA cleavage at each individual site were determined by using Quantity One software v.4.1 (Bio-Rad, Hercules, CA, USA).

## TATCTGC–linker 1–[GRLRL]2–linker 2–ATGCACCTTA [miRNA-18a-DC, Dual oligonucleotide-peptide conjugate targeted to miR-18a: catalytic peptide [LRLRG]2 between two 2-aminoadenine-containing oligodeoxyribonucleotides]
Buffer (1) 50 mM Tris-HCl pH 7.0, 200 mM KCl, 1 mM EDTA, 2 h
  Total Cleavage: 0%
Buffer (1) 50 mM Tris-HCl pH 7.0, 200 mM KCl, 1 mM EDTA, 6 h
  Total Cleavage: 1%
Buffer (1) 50 mM Tris-HCl pH 7.0, 200 mM KCl, 1 mM EDTA, 24 h
  Total Cleavage: 3%
Buffer (1) 50 mM Tris-HCl pH 7.0, 200 mM KCl, 1 mM EDTA, 48 h
  Total Cleavage: 7%
Buffer (1) 50 mM Tris-HCl pH 7.0, 200 mM KCl, 1 mM EDTA, 72 h
  Total Cleavage: 8%
Buffer (2) 20 mM Tris-HCl pH 7.8, 40 mM KCl, 8 mM MgCl2, 1 mM DTT, 0.02 mg/mL BSA, 2 h
  Total Cleavage: 1,4%
Buffer (2) 20 mM Tris-HCl pH 7.8, 40 mM KCl, 8 mM MgCl2, 1 mM DTT, 0.02 mg/mL BSA, 6 h
  Total Cleavage: 5%
Buffer (2) 20 mM Tris-HCl pH 7.8, 40 mM KCl, 8 mM MgCl2, 1 mM DTT, 0.02 mg/mL BSA, 24 h
  Total Cleavage: 19%
Buffer (2) 20 mM Tris-HCl pH 7.8, 40 mM KCl, 8 mM MgCl2, 1 mM DTT, 0.02 mg/mL BSA, 48 h
  Total Cleavage: 23%
Buffer (2) 20 mM Tris-HCl pH 7.8, 40 mM KCl, 8 mM MgCl2, 1 mM DTT, 0.02 mg/mL BSA, 72 h
  Total Cleavage: 37%
  rise of Kobs in buffer (2) compared to Kobs in buffer (1): 7 fold
